As usually defined, the IC50 is the concentration that gives 50% inhibition. As usually defined, the MIC is the lowest concentration found to suppress growth. A low value points to a more susceptible organism.

In brackets after ≈: the same amount, converted by molar mass.

31 compounds from ChEMBL document CHEMBL4373693, “Virtual Screening Approach and Investigation of Structure-Activity Relationships To Discover Novel Bacterial Topoisomerase Inhibitors Targeting Gram-Positive and Gram-Negative Pathogens” (J Med Chem, 2019) can be followed below.

Test [1] has as its target DNA gyrase subunit A (Escherichia coli K-12, UniProt P0AES4). The test can be described thus: Inhibition of Escherichia coli ATCC 25922 DNA gyrase A assessed as reduction in enzyme-mediated supercoiling of relaxed pBR322 DNA by ethidium bromide staining based gel electrophoresis method.
The target of test [2] is DNA gyrase subunit A (Staphylococcus aureus, UniProt P20831). Description: Inhibition of Staphylococcus aureus ATCC 29213 DNA gyrase A assessed as reduction in enzyme-mediated supercoiling of relaxed pBR322 DNA by ethidium bromide staining based gel electrophoresis method.
Chain of DNA gyrase subunit A (Staphylococcus aureus, UniProt P20831) (P20831 whole entry): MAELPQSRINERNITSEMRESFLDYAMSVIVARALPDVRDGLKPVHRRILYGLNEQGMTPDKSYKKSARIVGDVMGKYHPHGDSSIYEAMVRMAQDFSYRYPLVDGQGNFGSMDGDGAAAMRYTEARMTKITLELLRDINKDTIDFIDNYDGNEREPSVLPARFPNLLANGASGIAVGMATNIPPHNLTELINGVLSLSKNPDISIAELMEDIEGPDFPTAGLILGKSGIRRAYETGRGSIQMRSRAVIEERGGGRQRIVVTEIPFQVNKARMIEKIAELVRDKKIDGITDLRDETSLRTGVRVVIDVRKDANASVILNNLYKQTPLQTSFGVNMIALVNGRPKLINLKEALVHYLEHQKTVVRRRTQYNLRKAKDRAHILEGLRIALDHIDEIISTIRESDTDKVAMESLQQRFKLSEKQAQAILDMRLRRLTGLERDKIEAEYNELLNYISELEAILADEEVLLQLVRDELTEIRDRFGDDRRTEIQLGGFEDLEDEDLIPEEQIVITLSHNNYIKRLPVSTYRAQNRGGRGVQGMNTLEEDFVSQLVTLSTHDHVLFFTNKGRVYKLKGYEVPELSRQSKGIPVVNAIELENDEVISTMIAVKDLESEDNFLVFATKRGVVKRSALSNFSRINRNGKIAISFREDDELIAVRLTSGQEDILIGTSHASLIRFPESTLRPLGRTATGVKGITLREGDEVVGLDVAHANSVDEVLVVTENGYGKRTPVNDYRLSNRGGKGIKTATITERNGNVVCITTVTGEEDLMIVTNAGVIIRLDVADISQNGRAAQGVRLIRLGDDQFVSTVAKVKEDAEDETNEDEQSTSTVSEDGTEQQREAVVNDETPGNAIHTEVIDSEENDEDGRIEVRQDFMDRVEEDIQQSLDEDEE
The target in test [3] is T1, DNA topoisomerase 4 subunit A (Escherichia coli K-12, UniProt P0AFI2).
T1 sequence (P0AFI2 whole entry): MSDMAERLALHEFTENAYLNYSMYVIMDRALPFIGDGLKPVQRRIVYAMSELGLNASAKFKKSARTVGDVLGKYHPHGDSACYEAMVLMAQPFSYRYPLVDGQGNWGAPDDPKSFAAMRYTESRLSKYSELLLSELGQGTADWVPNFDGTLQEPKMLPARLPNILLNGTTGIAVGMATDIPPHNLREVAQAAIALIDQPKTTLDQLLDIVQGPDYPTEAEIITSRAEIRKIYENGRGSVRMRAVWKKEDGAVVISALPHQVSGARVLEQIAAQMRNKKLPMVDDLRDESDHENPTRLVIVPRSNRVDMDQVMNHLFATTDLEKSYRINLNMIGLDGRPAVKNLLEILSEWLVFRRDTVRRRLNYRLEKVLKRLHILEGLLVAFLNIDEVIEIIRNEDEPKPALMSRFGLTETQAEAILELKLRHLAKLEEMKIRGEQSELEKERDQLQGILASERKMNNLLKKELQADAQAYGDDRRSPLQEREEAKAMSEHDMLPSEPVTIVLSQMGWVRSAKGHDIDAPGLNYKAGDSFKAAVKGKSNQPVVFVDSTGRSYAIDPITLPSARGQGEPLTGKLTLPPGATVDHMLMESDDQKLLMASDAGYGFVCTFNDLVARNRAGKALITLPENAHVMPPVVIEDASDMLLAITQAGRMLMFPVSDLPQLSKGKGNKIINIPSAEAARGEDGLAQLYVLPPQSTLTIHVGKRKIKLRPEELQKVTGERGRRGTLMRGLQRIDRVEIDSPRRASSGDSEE
The test can be described thus: Inhibition of Escherichia coli ATCC 25922 DNA topoisomerase 4 subunit ParC assessed as reduction in decatenation of kinetoplast DNA incubated for 30 mins by ethidium bromide staining based gel electrophoresis method.

Test [4] deals with DNA topoisomerase 4 subunit A (Staphylococcus aureus, UniProt P0C1U9). Description: Inhibition of Staphylococcus aureus ATCC 29213 DNA topoisomerase 4 subunit ParC assessed as reduction in decatenation of kinetoplast DNA incubated for 30 mins by ethidium bromide staining based gel electrophoresis method.
Chain of DNA topoisomerase 4 subunit A (Staphylococcus aureus, UniProt P0C1U9) (P0C1U9 whole entry): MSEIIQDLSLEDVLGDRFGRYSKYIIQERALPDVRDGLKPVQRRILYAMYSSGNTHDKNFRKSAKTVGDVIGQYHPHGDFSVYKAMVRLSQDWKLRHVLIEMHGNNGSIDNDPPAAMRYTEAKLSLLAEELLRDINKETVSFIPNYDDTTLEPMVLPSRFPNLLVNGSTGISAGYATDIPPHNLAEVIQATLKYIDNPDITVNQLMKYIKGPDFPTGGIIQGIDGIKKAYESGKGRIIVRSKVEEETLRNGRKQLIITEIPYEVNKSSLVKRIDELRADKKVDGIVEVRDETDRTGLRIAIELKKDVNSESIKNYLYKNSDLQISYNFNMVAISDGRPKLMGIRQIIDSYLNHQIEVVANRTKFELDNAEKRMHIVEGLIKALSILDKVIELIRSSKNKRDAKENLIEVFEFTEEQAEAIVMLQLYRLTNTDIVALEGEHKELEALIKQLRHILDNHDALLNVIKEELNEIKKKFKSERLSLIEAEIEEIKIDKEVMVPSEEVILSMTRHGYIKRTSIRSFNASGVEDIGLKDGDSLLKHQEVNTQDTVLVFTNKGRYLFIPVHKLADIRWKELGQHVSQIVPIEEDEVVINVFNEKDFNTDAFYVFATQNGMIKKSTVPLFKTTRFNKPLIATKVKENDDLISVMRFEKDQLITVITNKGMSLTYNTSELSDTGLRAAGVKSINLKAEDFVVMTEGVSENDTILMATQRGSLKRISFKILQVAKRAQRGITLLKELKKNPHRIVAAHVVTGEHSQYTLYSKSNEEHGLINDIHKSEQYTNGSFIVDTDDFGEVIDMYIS
Test [5] has as its system Escherichia coli. The test can be described thus: Antibacterial activity against Escherichia coli ATCC 25922 after 16 to 24 hrs by broth microdilution method. Type of test: functional. In general terms: Broth dilution looks for growth in wells or tubes with falling amounts of substance.
Test [6] deals with Staphylococcus aureus. Description: Antibacterial activity against Staphylococcus aureus ATCC 29213 after 16 to 24 hrs by broth microdilution method. Format: functional.
Test [7] relates to Staphylococcus aureus. The test can be described thus: Antibacterial activity against Staphylococcus aureus BAA-1720 after 16 to 24 hrs by broth microdilution method. Format: functional.
The subject of test [8] is Pseudomonas aeruginosa. The test can be described thus: Antibacterial activity against Pseudomonas aeruginosa ATCC 27853 after 16 to 24 hrs by CLSI method. Format: functional.

Chain of DNA gyrase subunit A (Escherichia coli K-12, UniProt P0AES4) (P0AES4 whole entry): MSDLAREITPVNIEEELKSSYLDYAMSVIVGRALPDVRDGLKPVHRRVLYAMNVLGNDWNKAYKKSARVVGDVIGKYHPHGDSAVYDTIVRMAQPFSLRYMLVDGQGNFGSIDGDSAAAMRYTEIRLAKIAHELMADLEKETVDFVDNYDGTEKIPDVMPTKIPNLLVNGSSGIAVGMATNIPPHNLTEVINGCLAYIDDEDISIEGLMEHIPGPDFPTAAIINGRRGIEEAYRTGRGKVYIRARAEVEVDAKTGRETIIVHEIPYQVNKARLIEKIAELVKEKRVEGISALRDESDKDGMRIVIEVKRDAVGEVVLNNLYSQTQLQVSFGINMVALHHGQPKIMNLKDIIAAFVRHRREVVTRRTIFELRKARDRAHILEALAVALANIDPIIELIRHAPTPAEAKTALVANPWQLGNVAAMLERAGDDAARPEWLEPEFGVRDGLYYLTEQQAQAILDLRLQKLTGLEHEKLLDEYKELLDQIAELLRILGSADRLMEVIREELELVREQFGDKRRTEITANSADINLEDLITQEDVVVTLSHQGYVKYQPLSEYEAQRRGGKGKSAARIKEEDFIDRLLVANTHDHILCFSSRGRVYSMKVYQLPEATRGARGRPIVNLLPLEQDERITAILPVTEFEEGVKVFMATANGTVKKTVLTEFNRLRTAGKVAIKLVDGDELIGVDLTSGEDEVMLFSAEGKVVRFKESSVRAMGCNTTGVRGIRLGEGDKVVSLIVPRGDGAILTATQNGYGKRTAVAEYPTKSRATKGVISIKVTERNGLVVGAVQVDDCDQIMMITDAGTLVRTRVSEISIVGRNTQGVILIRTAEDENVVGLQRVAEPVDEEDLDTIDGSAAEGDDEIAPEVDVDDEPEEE

For `COc1cc2ccccc2c(N2CCN(CCCNc3cc(=O)oc4ccccc34)CC2)n1`, the IC50 in test [1] was determined as 66 µM; in test [2], 43.3 µM; in test [3], 2.4 µM; in test [4] it was 137 µM.
Regarding `O=c1cc(N[C@H]2C[C@@H](N3CCN(c4nccc5ccccc45)CC3)C2)c2ccccc2o1`, the IC50 in test [1] is 1.1 µM; in test [2], 1.2 µM; in test [3] it was 0.9 µM; in test [4], > 100 µM.
`O=c1cc(NCCCN2CCN(c3nccc4ccc(F)cc34)CC2)c2ccccc2o1`: the IC50 in test [1] was 0.8 µM; in test [2], 2.8 µM; in test [3] it was 1.7 µM; in test [4], 11.8 µM.
`O=c1cc(NCCCN2CCN(c3nccc4ncccc34)CC2)c2ccccc2o1`: the IC50 in test [1] was 40.6 µM; in test [2], 26.8 µM; in test [3] it was 29.3 µM; in test [4] it was 83.8 µM.
In the case of `O=c1cc(NCCCN2CCN(c3nccc4ccc(F)cc34)CC2)c2c(o1)CCOC2`, the IC50 in test [1] worked out at 6.3 µM; in test [2] it was 19 µM; in test [3] it was 59 µM; in test [4] it was 4 µM.
The matching figures for `Cc1c(NCCCN2CCN(c3nccc4ccc(F)cc34)CC2)c2ccccc2oc1=O`: 1.3 µM, 16.9 µM, 2.2 µM and > 100 µM.
For the compound `O=c1cc(NC[C@@H](O)CN2CCN(c3nccc4ccc(F)cc34)CC2)c2ccccc2o1`, the IC50 was 1.1 µM in test [1], 1.6 µM in test [2], 1.3 µM in test [3] and 3 µM in test [4]. In addition, the MIC came out at 2 µg/mL (≈ 4.46 µM) in test [5], 1 µg/mL (≈ 2.23 µM) in test [6], 1 µg/mL (≈ 2.23 µM) in test [7] and 4 µg/mL (≈ 8.92 µM) in test [8].
On to `Cc1cccc2oc(=O)cc(NCCCN3CCN(c4nccc5ccc(F)cc45)CC3)c12`, for which the IC50 in test [1] was 2.4 µM; in test [2], 2.1 µM; in test [3], 3.1 µM; in test [4], > 100 µM.
As to `O=c1cc(NCCCN2CCN(c3nccc4ccccc34)CC2)c2cc(F)ccc2o1`, the IC50 in test [1] came to 1.2 µM; in test [2], 3.9 µM; in test [3], 1.3 µM; in test [4], 3.1 µM. Moreover, the MIC in test [5] came out at 0.5 µg/mL (≈ 1.16 µM); in test [6] it was 4 µg/mL (≈ 9.25 µM); in test [7], 2 µg/mL (≈ 4.62 µM).
With `O=c1cc(NCCCN2CCN(c3nccc4ccc(F)cc34)CC2)c2c(o1)CCS(=O)(=O)C2`, the IC50 was found to be 2.9 µM in test [1], 7.8 µM in test [2], 52.5 µM in test [3] and 2.1 µM in test [4].
As for `O=c1cc(OCCCN2CCN(c3nccc4ccccc34)CC2)c2ccccc2o1`, the IC50 is 6.2 µM in test [1], 28.3 µM in test [2], 22.6 µM in test [3] and > 100 µM in test [4].
With `Cc1ccc2ccnc(N3CCN(CCCNc4cc(=O)oc5ccccc45)CC3)c2c1`, the half-maximal inhibitory concentration (IC50) in test [1] stood at 2.6 µM; in test [2], 9.6 µM; in test [3] it was 3.8 µM; in test [4], 52 µM.
For `O=c1nc(NC[C@@H](O)CN2CCN(c3nccc4ccc(F)cc34)CC2)c2ccccc2o1`, the IC50 worked out at 1.5 µM in test [1], 0.6 µM in test [2], 0.4 µM in test [3] and 0.3 µM in test [4]. For the same compound, the MIC in test [5] is 4 µg/mL (≈ 8.9 µM); in test [6], 0.25 µg/mL (≈ 0.556 µM); in test [7], 1 µg/mL (≈ 2.22 µM); in test [8] it was > 8 µg/mL.
Regarding `Cc1cc2ccccc2c(N2CCN(CCCNc3cc(=O)oc4ccccc34)CC2)n1`, the IC50 stood at 4.8 µM in test [1], 33.1 µM in test [2] and 7.5 µM in test [4].
For `O=c1cc(NC[C@H](O)CN2CCN(c3nccc4ccc(F)cc34)CC2)c2ccccc2o1`, the IC50 in test [1] turned out to be 1.8 µM; in test [2], 1.5 µM; in test [3], 1.1 µM; in test [4], 1.7 µM. In addition, the MIC in test [5] was found to be 4 µg/mL (≈ 8.92 µM); in test [6], 1 µg/mL (≈ 2.23 µM); in test [7] it was 0.5 µg/mL (≈ 1.11 µM); in test [8], 8 µg/mL (≈ 17.8 µM).
As for `O=c1cc(NCCCN2CCN(c3nc(F)cc4ccccc34)CC2)c2ccccc2o1`, the IC50 in test [1] came to 0.9 µM; in test [2], 2.6 µM; in test [3], 1.9 µM; in test [4], 7.1 µM. Besides, the minimum inhibitory concentration (MIC) amounted to 4 µg/mL (≈ 9.25 µM) in test [5], 4 µg/mL (≈ 9.25 µM) in test [6], 2 µg/mL (≈ 4.62 µM) in test [7] and 4 µg/mL (≈ 9.25 µM) in test [8].
On to `O=c1cc(NCCCN2CCN(c3nc(Cl)cc4ccccc34)CC2)c2ccccc2o1`, for which the IC50 in test [1] was 2.3 µM; in test [2] it was 12.1 µM; in test [3], 3.2 µM; in test [4], 10.2 µM.
Consider `O=c1cc(NCCN2CCN(c3nccc4ccccc34)CC2)c2ccccc2o1`, for which the IC50 in test [2] was 6.9 µM; in test [3], 6.7 µM; in test [4], > 100 µM.
For the compound `O=C(CCN1CCN(c2nccc3ccc(F)cc23)CC1)Nc1cc(=O)oc2ccccc12`, the IC50 in test [1] stood at 1.1 µM; in test [2], 10.5 µM; in test [3], 0.7 µM; in test [4], 39.7 µM.
On to `O=C(NCCCN1CCN(c2nccc3ccccc23)CC1)c1ccccc1`, for which the IC50 in test [1] came out at 112 µM; in test [2], 20 µM; in test [3], 130 µM; in test [4], 489 µM. Also, the MIC is 256 µg/mL (≈ 684 µM) in test [5], 16 µg/mL (≈ 42.7 µM) in test [6] and 32 µg/mL (≈ 85.5 µM) in test [7].
Consider `O=c1cc(NCCCN2CCN(c3nccc4ccccc34)CC2)c2c(o1)CCCC2`, for which the IC50 worked out at 7.6 µM in test [1], 3.7 µM in test [2], 7.8 µM in test [3] and 52.8 µM in test [4].
Turning to `O=c1cc(N[C@H]2C[C@H](N3CCN(c4nccc5ccccc45)CC3)C2)c2ccccc2o1`, the IC50 in test [1] stood at 2.1 µM; in test [2], 5.6 µM; in test [3], 2.6 µM; in test [4], 11.6 µM.
Consider `O=c1cc(NCCCN2CCN(c3nccc4ccc(F)cc34)CC2)c2c(o1)CCNC2`, for which the IC50 was 22.8 µM in test [1], 164 µM in test [2], 7.3 µM in test [3] and > 100 µM in test [4].
As for `O=C1CN(c2nccc3ccccc23)CCN1CCCNc1cc(=O)oc2ccccc12`, the IC50 was 46.5 µM in test [1], > 100 µM in test [2], 28.5 µM in test [3] and > 100 µM in test [4].
Take `O=c1cc(NCCCN2CCN(c3nccc4ccccc34)CC2)c2cc(Cl)ccc2o1`: the IC50 in test [1] was determined as 0.6 µM; in test [2] it was 5.2 µM; in test [3], 1.2 µM; in test [4] it was 5.5 µM. The MIC in test [5] worked out at 0.5 µg/mL (≈ 1.11 µM); in test [6], 8 µg/mL (≈ 17.8 µM); in test [7], 4 µg/mL (≈ 8.91 µM); in test [8], 4 µg/mL (≈ 8.91 µM).
As to `COc1ccc2ccnc(N3CCN(CCCNc4cc(=O)oc5ccccc45)CC3)c2c1`, the concentration for half-maximal inhibition (IC50) stood at 3.2 µM in test [1], 1.1 µM in test [2], 0.9 µM in test [3] and 6.7 µM in test [4]. Moreover, the MIC in test [5] was 4 µg/mL (≈ 9 µM); in test [6], 2 µg/mL (≈ 4.5 µM); in test [7], 1 µg/mL (≈ 2.25 µM); in test [8], 8 µg/mL (≈ 18 µM).
For the compound `O=c1cc(NCCCN2CCN(c3nccc4ccc(F)cc34)CC2)c2c(o1)CCSC2`, the IC50 came out at 1.3 µM in test [1], 1.3 µM in test [2], 8 µM in test [3] and 15 µM in test [4].
For the compound `CN(C)c1ccc2ccnc(N3CCN(CCCNc4cc(=O)oc5ccccc45)CC3)c2c1`, the IC50 in test [1] was 5.6 µM; in test [2] it was 4.6 µM; in test [3], 8.8 µM; in test [4], 11.2 µM.
With `CN(CCCN1CCN(c2nccc3ccccc23)CC1)c1cc(=O)oc2ccccc12`, the IC50 in test [1] was 31.7 µM; in test [2], 12.1 µM; in test [3], 22.9 µM; in test [4], > 100 µM.
`N#Cc1cc2ccccc2c(N2CCN(CCCNc3cc(=O)oc4ccccc34)CC2)n1`: the 50% inhibitory concentration (IC50) in test [1] is 5.6 µM; in test [2] it was 3.6 µM; in test [3], 3.9 µM; in test [4] it was > 100 µM.
With `O=c1cc(NC2CCN(CCCc3ccccc3)CC2)c2cc(Cl)ccc2o1`, the 50% inhibitory concentration (IC50) is > 800 µM in test [1], 27.8 µM in test [2], 4.1 µM in test [3] and 100 to 200 µM in test [4].
